Tests used:
Experiment in all cases: relative viability (nuclei count vs DMSO), 5 days (fraction); higher = more cells survive
Masitinib + Crizotinib = compound: Cc1ccc(NC(=O)c2ccc(CN3CCN(C)CC3)cc2)cc1Nc1nc(-c2cccnc2)cs1 [Masitinib] + C[C@@H](Oc1cc(-c2cnn(C3CCNCC3)c2)cnc1N)c1c(Cl)ccc(F)c1Cl [Crizotinib] (partner 1 µM)
Summary of the method: (§1)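 Relative viability is defined as nuclei in treated wells over nuclei in vehicle wells. Duplicate plates were run and medians reported. Lung cancer cell lines in 1536-well plates were dosed by pin tool one day after seeding, with one drug or with a fixed anchor-drug dose plus five library-drug doses (not always all listed) in √10 steps, and nuclei were counted after 5 days.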

Masitinib + OSI-027 = compound: Cc1ccc(NC(=O)c2ccc(CN3CCN(C)CC3)cc2)cc1Nc1nc(-c2cccnc2)cs1 [Masitinib] + COc1cccc2cc(-c3nc([C@H]4CC[C@H](C(=O)O)CC4)n4ncnc(N)c34)[nH]c12 [OSI-027] (partner 0.5 µM)
Summary of the method: as §1

[1] = compound: CC1=CC(=CC=C1)NC2=NC(=CS2)C3=CC=NC=C3 + O=C(c1cc(Cc2n[nH]c(=O)c3ccccc23)ccc1F)N1CCN(C(=O)C2CC2)CC1 [Olaparib] (partner 8 µM)
Summary of the method: as §1

Masitinib + Trametinib = compound: Cc1ccc(NC(=O)c2ccc(CN3CCN(C)CC3)cc2)cc1Nc1nc(-c2cccnc2)cs1 [Masitinib] + CC(=O)Nc1cccc(-n2c(=O)n(C3CC3)c(=O)c3c(Nc4ccc(I)cc4F)n(C)c(=O)c(C)c32)c1 [Trametinib] (partner 0.02 µM)
Summary of the method: as §1

Cell Line | relative viability (Masitinib + Crizotinib; first compound 0.01 µM) | relative viability (Masitinib + Crizotinib; first compound 0.03162 µM) | relative viability (Masitinib + Crizotinib; first compound 0.1 µM) | relative viability (Masitinib + Crizotinib; first compound 0.3162 µM) | relative viability (Masitinib + Crizotinib; first compound 1 µM) | relative viability (Masitinib + OSI-027; first compound 0.01 µM) | relative viability (Masitinib + OSI-027; first compound 0.03162 µM) | relative viability (Masitinib + OSI-027; first compound 0.1 µM) | relative viability (Masitinib + OSI-027; first compound 0.3162 µM) | relative viability (Masitinib + OSI-027; first compound 1 µM) | relative viability ([1]; first compound 0.08 µM) | relative viability ([1]; first compound 0.253 µM) | relative viability ([1]; first compound 0.8 µM) | relative viability ([1]; first compound 2.53 µM) | relative viability ([1]; first compound 8 µM) | relative viability (Masitinib + Trametinib; first compound 0.01 µM) | relative viability (Masitinib + Trametinib; first compound 0.03162 µM) | relative viability (Masitinib + Trametinib; first compound 0.1 µM) | relative viability (Masitinib + Trametinib; first compound 0.3162 µM) | relative viability (Masitinib + Trametinib; first compound 1 µM)
HCC-44 | 0.699 | 0.844 | 0.875 | 0.713 | 0.739 | 0.526 | 0.497 | 0.531 | 0.392 | 0.59 | 0.952 | 0.791 | 0.764 | 0.668 | 0.646 | 0.811 | 1.04 | 0.989 | 0.853 | 1.07
COR-L23 | 0.645 | 0.607 | 0.768 | 0.59 | 0.629 | 0.893 | 0.737 | 0.776 | 0.751 | 0.738 | 0.308 | 0.283 | 0.245 | 0.322 | 0.285 | 0.543 | 0.641 | 0.673 | 0.686 | 0.571
HCC-78 | 0.356 | 0.445 | 0.334 | 0.288 | 0.293 | 0.36 | 0.337 | 0.364 | 0.337 | 0.335 | 0.713 | 0.791 | 0.842 | 0.685 | 0.674 | 0.509 | 0.787 | 0.746 | 0.745 | 0.65
NCI-H1355 | 1.06 | 1.1 | 1.07 | 0.746 | 1.01 | 0.345 | 0.359 | 0.42 | 0.345 | 0.37 | 0.579 | 0.531 | 0.444 | 0.385 | 0.407 | 0.439 | 0.35 | 0.497 | 0.329 | 0.468
NCI-H838 | 0.95 | 0.71 | 0.828 | 0.651 | 0.818 | 0.353 | 0.331 | 0.385 | 0.342 | 0.394 | 0.567 | 0.545 | 0.714 | 0.685 | 0.521 | 0.375 | 0.425 | 0.458 | 0.451 | 0.488
NCI-H2126 | 1.02 | 1.09 | 1.05 | 1.07 | 0.993 | 0.697 | 0.727 | 0.653 | 0.602 | 0.657 | 0.894 | 0.898 | 0.869 | 0.88 | 0.887 | 0.523 | 0.54 | 0.562 | 0.507 | 0.534
BEN | 0.888 | 0.834 | 1.09 | 1.18 | 0.765 | 0.306 |  | 0.325 | 0.26 | 0.436 | 0.928 | 1.15 | 1.1 | 0.975 | 1.09 | 1.15 | 0.964 | 1.13 | 1.11 | 1.09
LCLC-103H | 0.783 | 1.08 | 0.891 | 0.969 | 1.03 | 0.412 | 0.526 | 0.414 | 0.459 | 0.404 | 0.631 | 0.725 | 0.704 | 0.748 | 0.546 |  | 0.624 | 0.693 | 0.713 | 0.669
EKVX |  | 0.789 | 0.79 | 0.825 | 0.922 |  | 0.533 | 0.566 | 0.673 | 0.599 | 0.617 | 0.72 |  | 0.525 | 0.371 | 0.38 | 0.27 | 0.353 |  | 0.249
NCI-H661 | 0.737 | 1.2 | 0.964 | 0.93 | 0.844 | 0.672 | 0.648 | 0.727 | 0.643 | 0.528 | 0.736 | 0.803 | 0.769 | 0.75 | 0.642 | 0.493 | 0.486 | 0.563 | 0.591 | 0.564
NCI-H1651 | 0.802 | 0.89 | 0.819 | 0.839 | 0.839 | 0.735 | 0.656 | 0.695 | 0.824 | 0.706 | 0.185 | 0.179 | 0.166 | 0.177 | 0.186 | 0.776 | 0.792 | 0.836 | 0.901 | 0.856
NCI-H2087 | 0.669 | 0.913 | 0.899 | 0.891 | 0.951 | 0.627 | 0.628 | 0.743 | 0.481 | 0.437 | 0.596 | 0.503 | 0.607 | 0.448 | 0.462 | 0.176 | 0.213 | 0.214 | 0.153 | 0.178
NCI-H1944 |  | 1.15 | 0.59 | 0.988 | 1.1 |  | 0.423 |  | 0.352 | 0.382 | 0.377 | 0.379 | 0.377 | 0.327 | 0.377 |  | 0.457 |  | 0.349 | 0.368
LC-2-ad | 0.347 | 0.399 | 0.466 | 0.473 | 0.373 | 0.862 | 0.904 | 0.929 | 0.738 | 0.768 | 0.661 | 0.693 | 0.657 | 0.627 | 0.616 | 0.92 | 0.917 | 0.911 | 0.941 | 0.93
COR-L 105 | 0.657 | 0.803 | 0.876 | 0.686 | 0.717 | 0.682 | 0.705 | 0.764 | 0.613 | 0.533 | 0.575 | 0.499 | 0.477 | 0.541 | 0.457 | 0.475 | 0.438 | 0.413 | 0.411 | 0.388
NCI-H1437 | 0.896 | 0.875 | 0.923 | 1.04 | 0.94 | 0.768 | 0.936 | 0.899 | 0.879 | 0.858 | 0.628 | 0.585 | 0.525 | 0.478 | 0.371 | 0.511 | 0.507 | 0.52 | 0.494 | 0.449
H3255 |  | 0.767 | 0.711 | 0.722 | 0.815 | 0.588 | 0.652 | 0.617 | 0.504 | 0.538 | 0.542 | 0.569 | 0.562 | 0.533 | 0.475 | 0.471 | 0.619 | 0.499 | 0.565 | 0.582
